These are literature values, as cited in patent publication US20020146463A1, “Health promoting compositions” (priority 2000, published 2002).

The conditions of data set [1]: 500 patients with skin conditions, 180-300 mg beta carotene/day for 10 years.
The conditions of data set [2]: high versus low levels of folic acid in diet.
For data set [3] the following is noted: three recent trials.

In the case of `CC1=C(/C=C/C(C)=C/C=C/C(C)=C/C=C/C=C(C)/C=C/C=C(C)/C=C/C2=C(C)CCCC2(C)C)C(C)(C)CCC1` [beta carotene], the adverse effects result in data set [1] is recorded as “without report of adverse effects”.
On to `Nc1nc2ncc(CNc3ccc(C(=O)N[C@@H](CCC(=O)O)C(=O)O)cc3)nc2c(=O)[nH]1` [folic acid], for which the “less likely to suffer a fatal heart attack” value in data set [2] is listed as 69%.
Take vitamin E: the “reduction of the risk of heart attacks” value in data set [3] is on record as “more than half”.
